Records with an inconclusive call do not appear. Active and inactive are the calls of the source.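 How the source made its calls: active means compound lowering the normal-ribosome reporter at least twice as much as the humanized-ribosome reporter, growth loss under a set limit; inconclusive means no clear call, values can overlap the other calls; inactive means the rest.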
Tests used:
[1] = tested on: E. coli WT GFP strain growth, fluorescence, 24 h; assay: E. coli growth inhibition, wild-type GFP versus h24 humanized RFP strain, dose response, h24 mutant RFP vs wild-type GFP, cherry-pick (AID 977628)
[2] = tested on: E. coli mixed WT/h24 culture total growth, OD600, 24 h; assay: as above

SMILES	AC50 [1]	AC50 [2] [µM]
Cc1ccc(CNC(=O)c2ccc(Br)o2)cc1	> 100 µM (inactive)	> 100
CN1c2ccc(C#Cc3cccnc3)cc2[C@@H]2[C@@H](CCN2C(=O)c2cccc(F)c2)[C@H]1CO	> 100 µM (inactive)	> 100
Cc1ccc(NC(=O)CCCSc2ccccc2)cc1S(=O)(=O)N1CCOCC1	> 100 µM (inactive)	> 100
C[C@@H]1CN([C@@H](C)CO)C(=O)c2cccc(NC(=O)Nc3ccccc3)c2O[C@@H]1CN(C)S(=O)(=O)c1ccc(Cl)cc1	> 100 µM (inactive)	49.6
CC(CCc1ccccc1)NC(=O)CNC(=O)COc1ccccc1 (stereo not drawn)	> 100 µM (inactive)	> 100
COc1ccc(-c2nc3ccc(Cl)cn3c2Cc2cccc(F)c2)cc1OC	> 100 µM (inactive)	51.6
O=C(COn1nnc2ccc(C(F)(F)F)cc21)Nc1c(Cl)cccc1Cl	> 100 µM (inactive)	> 100
Cc1cc(OCC(=O)N(Cc2ccco2)C2CCS(=O)(=O)C2)ccc1Cl (stereo not drawn)	> 100 µM (inactive)	> 100
COc1ccc(CC(=O)NCc2csc(-c3cccs3)n2)cc1OC	> 100 µM (inactive)	> 100
CC(=O)c1c(N2CCOCC2)nc2ccc(Cl)cc2c1-c1ccccc1	> 100 µM (inactive)	> 100
Brc1cc2c(cc1Br)OCCOCCOCCO2	> 100 µM (inactive)	> 100
O=C(NCc1ccc(S(=O)(=O)Nc2ccccc2Cl)s1)c1ccccc1	> 100 µM (inactive)	> 100
CCOc1cccc2sc(NC(=O)CC)nc12	> 100 µM (inactive)	> 100
COc1ccc(NS(=O)(=O)c2cccc3ccccc23)cc1	> 100 µM (inactive)	40.6
Cc1cc(C(N)=O)nn1-c1c(Cl)cc(Cl)cc1Cl	> 100 µM (inactive)	> 100
O=C(Nc1cccc(Cl)c1)N1C[C@@H]2[C@H](c3ccccc31)[C@@H](CO)N2CC1CCCCC1	> 100 µM (inactive)	41.9
CCOC(=O)C(CC)Sc1cc(C)nc2ccc(OC)cc12 (stereo not drawn)	> 100 µM (inactive)	> 100

SMILES	AC50 [1]	AC50 [2] [µM]
CCOc1ccc2oc(C(=O)NC3CCN(Cc4ccccc4)CC3)c(C)c2c1	> 100 µM (inactive)	> 100
C=C1SC(Nc2c(C)cc(C)cc2C)=NC12CCCCC2	> 100 µM (inactive)	22.8
CCOc1ccccc1/C=C/c1cc(C(=O)O)c2ccccc2n1	> 100 µM (inactive)	37.6
CCn1c(-c2ccccc2Cl)nn(CC(=O)Nc2ccccc2OC)c1=S	> 100 µM (inactive)	> 100
COc1cc2c(cc1NC(=O)C(C)Sc1cccc[n+]1[O-])oc1ccccc12 (stereo not drawn)	> 100 µM (inactive)	> 100
CC(C)(C)c1ccc2c(c1)C(c1ccc3c(c1)OCO3)CC(=O)O2 (stereo not drawn)	> 100 µM (inactive)	> 100
COc1cc(C(F)(F)F)c(C(=O)N(C)Cc2ccc(Cl)c(Cl)c2)cn1	> 100 µM (inactive)	> 100
COc1ccc(NC(=O)CCS(=O)(=O)c2ccccc2Cl)cc1S(=O)(=O)Nc1ccc(Cl)cc1	> 100 µM (inactive)	> 100
Cc1onc(-c2ccccc2)c1-c1nnc(-c2ccccc2C(F)(F)F)o1	> 100 µM (inactive)	> 100
CCSc1nc2ccccc2c(=O)n1Cc1ccc(F)cc1	> 100 µM (inactive)	45.7
CCC(=O)Nc1nc2c(OC)ccc(OC)c2s1	> 100 µM (inactive)	> 100
CN(C)CCCN(C(=O)c1ccc(S(=O)(=O)N(C)Cc2ccccc2)cc1)c1nc2c(F)cccc2s1	> 100 µM (inactive)	39.3
Cc1cc(Cl)n2ncc(-c3ccccc3)c2n1	> 100 µM (inactive)	> 100
CC(=O)c1c(C)nn(CC(O)COc2ccc3c(c2)CCC3)c1C (stereo not drawn)	> 100 µM (inactive)	50.1
CC(C)Oc1cccc(C(=O)C2CCCN(C(=O)c3cc(C(F)(F)F)[nH]n3)C2)c1 (stereo not drawn)	> 100 µM (inactive)	51.3
CCCn1c(=O)c2ccccc2n2c(SCCOc3ccc(OC)cc3)nnc12	> 100 µM (inactive)	> 100
Cc1cc(CNC(=O)COc2ccc(C)c(C)c2)c2ccccc2n1	> 100 µM (inactive)	39

From PubChem BioAssay AID977628 (Broad Institute, 2014)
